Where a name gives a salt, the structure may show the parent alone. Read-outs that look alike come from different tables or passages of the source.
Experiments:
opioid receptor = biological target: T1, opioid receptor (Mus musculus, UniProt P42866); assay: mouse writhing analgesis test: block of morphine-induced analgesia; type: in vivo, CF-1 male mice; set-up: unit not given here; conditions: dose of antagonist that reduced the inhibition of writhing produced by 1.25 mg/kg morphine sulfate to 50%; subcutaneous, 20 min before acetic acid
T1 construct: Five CF-1 male mice (Charles River, Portage, Mich.); from tissue; host or cells: living CF-1 male mice (in vivo test; endogenous receptor)
T1 sequence (P42866 whole entry): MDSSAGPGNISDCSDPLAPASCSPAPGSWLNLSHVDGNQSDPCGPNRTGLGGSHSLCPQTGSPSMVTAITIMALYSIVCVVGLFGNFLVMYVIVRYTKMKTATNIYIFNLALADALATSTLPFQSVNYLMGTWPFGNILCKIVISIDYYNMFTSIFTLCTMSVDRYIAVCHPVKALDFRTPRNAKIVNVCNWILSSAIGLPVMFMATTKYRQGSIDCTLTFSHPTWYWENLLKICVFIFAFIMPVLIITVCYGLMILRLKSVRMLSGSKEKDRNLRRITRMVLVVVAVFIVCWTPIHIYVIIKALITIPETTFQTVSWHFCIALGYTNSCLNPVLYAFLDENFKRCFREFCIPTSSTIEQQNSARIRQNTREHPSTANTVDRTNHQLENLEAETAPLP
Description: In order to determine in vivo opioid receptor antagonism, the mouse writhing analgesis test was used. Test compounds were measured for their ability to block morphine-induced analgesia.
Five CF-1 male mice (Charles River, Portage, Mich.), weighing approximately 20 g after being fasted overnight, were observed simultaneously for the writhing response. The writhing response was defined as a contraction of the abdominal musculature, followed by the extension of the hind limbs, and was induced by the intraperitoneal adminstration of 0.6% acetic acid in a volumne of 1 ml/100 g body weight. The observation period was 10 min. in duration, beginning 5 min. after injection of acetic acid. The percent inhibition of writhing was calculated from the average number of writhes in the control (non-drug) group. Each data point is the mean (±standarderror) for five mice. The ED50 was defined as the dose of agonist that inhibited mean writhing by 50%. […] Each mouse was only used once. All drugs were administered subcutaneously (1 ml/100 g bwt) 20 min. before the injection of acetic acid.

[1] = biological target: T2, peripheral opioid receptors (Mus musculus, UniProt P42866); assay: precipitated diarrhea in morphine-maintained mice (peripheral opioid activity) and comparison with the writhing test; type: in vivo; conditions: for Ratio (AD50 mouse writhing test / ED50 mouse diarrhea test): higher ratio = greater relative antagonism of peripheral opioid receptors; for ED50: mouse, 0.5 h, morphine-maintained mice, antagonist subcutaneous or oral, 30 min observation
T2 construct: Mice maintained (6 mice/cage) on 0.01M saccharin water with 1 g/1 morphine sulfate; from tissue; host or cells: living morphine-maintained mice (in vivo test; endogenous receptor)
T2 sequence (P42866 whole entry): as above
Description: Determinations of peripheral opioid activity were conducted. Mice maintained (6 mice/cage) on 0.01M saccharin water with 1 g/1 morphine sulfate for a minimum of 10 days with mice averaging 3.0^+ g water/mouse/day for at least three days are used as subjects. The morphine water was removed 45 min. prior to injection with the proposed opioid antagonist. Initial testing consisted of 5 mice/dose of compound. The antagonist was given by the subcutaneous or oral, route of administration,and the mice were placed in 11-14"×4 7/12 I.D. clear plastic cylinders with white paper towels used for a floor.
The mice were then monitored visually for 30 minutes post-injection for the presence of jumping and of diarrhea. Jumping was scored as positive if at least one jump occurred in 30 min. Diarrhea was scored as positive when feces were moist enough to stain the white paper at the base of the cylinder. After 30 minutes of testing, the mice were placed back in original cages, put back on morphine water, and not tested again for 48 hrs. Lower doses of the antagonist compounds were tested until threshold doses for diarrhea were determined. Diarrhea is a peripherally mediated sign of precipitated opiate abstinence.
The extent of the effect on peripheral activity compared to central activity of the present compounds can-be determined by comparing the AD50 for the mouse writhing test with the ED50 for the mouse diarrhea test. The higher the ratio, the greater the relative antagonism of the peripheral opioid receptors by a particular compound.

mu receptor = biological target: T3, mu receptor (Rattus norvegicus, UniProt P33535); assay: opioid receptor binding assay, [3H] NAL (tritiated naloxone), mu receptor; set-up: species or system rat (Male Sprague Dawley), brain minus cerebellum; conditions: for inhibition at 0.01 µM / inhibition at 0.1 µM: 20 min
T3 construct: rat whole brain minus cerebellum for mu was homogenized; from tissue; host or cells: brain of male Sprague Dawley rats, whole brain minus cerebellum, homogenate fraction
T3 sequence (P33535 whole entry): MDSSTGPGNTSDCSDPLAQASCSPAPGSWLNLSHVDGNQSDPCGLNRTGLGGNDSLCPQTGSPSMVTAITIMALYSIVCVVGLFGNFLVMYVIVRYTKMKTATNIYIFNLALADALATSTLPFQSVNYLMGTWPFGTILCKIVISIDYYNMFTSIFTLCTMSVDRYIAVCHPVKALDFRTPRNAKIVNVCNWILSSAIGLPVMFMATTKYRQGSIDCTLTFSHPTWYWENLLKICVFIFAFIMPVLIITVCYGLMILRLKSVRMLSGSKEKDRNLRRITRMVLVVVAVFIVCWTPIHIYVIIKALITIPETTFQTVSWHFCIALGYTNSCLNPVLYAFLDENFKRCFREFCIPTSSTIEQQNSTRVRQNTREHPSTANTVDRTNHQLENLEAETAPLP
Description: This assay was conducted by the following procedure.
Male Sprague Dawley rats for mu site experiments were sacrificed via decapitation and the brains were removed. The brain tissue, rat whole brain minus cerebellum for mu was homogenized in a Teflon and glass tissue homogenizer. A supernatant I, pellet IV, fraction was frozen in a nitrogen freezer at 1.33 g/ml concentration and stored for not longer than five weeks prior to use. Pellets were rehydrated with physiological buffer prior to use.
The reaction was initiated by the addition of the resuspended tissue which had been preincubated at 37° C. for 20 minutes. The reaction mixture was incubated in a 37° C. water bath for 20 minutes. The reaction was terminated by rapid filtration, (Brandel Cell Harvestor), through Whatman GF/B glass filters that had been presoaked in Krebs-Hepes buffer pH 7.4. The filters were then washed 2x with 5 ml of ice cold Krebs-Hepes buffer pH 7.4. Washed filters were placed in scintillation vials and 10 ml RedySolv, (Brandel), was added and samples counted in a Searle D-300 beta counter. Means and standard error statistics were calculated for triplicate experimental determinations in certain cases. The incubation time for the reaction mixture was 20 minutes at 37° C.
Ki values were calculated using a minitab statistical program according to the following formula: [formula] wherein IC50 is the concentration at which 50% of the ^3 H ligand is displaced by the test compounds and KD is the dissociation constant for the ^3 H ligand at the receptor site. KD can be determined as described by Bennett, "Methods in Binding Studies", Neurotransmitter Receptor Binding, Yamamura, et al., ed., p. 57-90, Raven Press, N.Y. (1978) incorporated herein by reference.
In the Table, column 1 sets forth the Example Number of the compound evaluated, column 2 the Ki value in nanomolar (nM) at the mu receptor and columns 3 and 4 the percent displacement by the test compound at the indicated concentration, i.e., 10 nm or 100 nm.

[2] = read-out: % displacement at 10 nM, 10 nM test compound, [3H] naloxone 0.5 nM
[3] = read-out: % displacement at 100 nM, 100 nM test compound, [3H] naloxone 0.5 nM
[4] = read-out: % displacement at 100 nM

Structure (SMILES) | AD50 (opioid receptor) | Ratio (AD50 mouse writhing test / ED50 mouse diarrhea test) [1] | ED50 [1] [mg/kg] | Ki (mu receptor) [nM] | inhibition at 0.01 µM (mu receptor; [2]) [%] | inhibition at 0.1 µM (mu receptor; [3]) [%] | inhibition at 0.1 µM (mu receptor; [4]) [%] | inhibition at 0.01 µM (mu receptor; 10 nM test compound, [3H] naloxone 0.5 nM, read-out: % displacement at 10 nM) [%] | inhibition at 0.1 µM (mu receptor; 100 nM test compound, [3H] naloxone 0.5 nM, read-out: % displacement at 100 nM) [%]
C[C@H]1CN(CCC(C(=O)NCCCC(=O)O)C2CCCCC2)CC[C@@]1(C)c1cccc(O)c1 (relative stereo) [Example 28, 4-[[2-cyclohexyl-4-[4-(3-hydroxyphenyl)-3,4-dimethyl-1-piperidinyl]-1-oxobutyl]amino]-butanoic acid monohydrate] | > 40 | > 4000 | 0.01 | 3.09 | 86 | 95 |  |  | 
CCOC(=O)CNC(=O)C(CC1CCCCC1)CN1CC[C@@](C)(c2cccc(O)c2)[C@@H](C)C1 (relative stereo) [Example 29, 2-[[3-[4-(3-hydroxyphenyl-3,4-dimethyl-1-piperidinyl]-2-cyclohexylmethyl-1-oxopropyl]amino]acetic acid ethyl estermonohydrochloride] | 3.9 | 23 | 0.17 | 2.94 | 98 | 100 |  |  | 
C[C@H]1CN(CC(CC2CCCCC2)C(=O)NCC(=O)O)CC[C@@]1(C)c1cccc(O)c1 (relative stereo) [Example 30, 2-[[3-[4-(3-hydroxyphenyl)-3,4-dimethyl-1-piperidinyl]-2-(cyclohexylmethyl)-1-oxopropyl]-amino]acetic acid monohydrate] | > 40 | > 2353 | 0.017 | 0.42 | 89 | 93 |  |  | 
CCNC(=O)CNC(=O)C(CC1CCCCC1)CN1CC[C@@](C)(c2cccc(O)c2)[C@@H](C)C1 (relative stereo) [Example 31, N-ethyl-2-[[3-[4-(3-hydroxyphenyl)-3,4-dimethyl-1-piperidinyl]-2-(cyclohexylmethyl)-1-oxo-propyl]amino]acetamide monohydrochloride monohydrate] | 5.3 | 38 | 0.14 | 0.4 | 100 |  | 97 |  | 
CNC(=O)CNC(=O)C(CC1CCCCC1)CN1CC[C@@](C)(c2cccc(O)c2)[C@@H](C)C1 (relative stereo) [Example 32, N-[2-methylamino-2-oxoethyl]-3-[4-(3-hydroxphenyl)-3,4-dimethyl(-1-piperidinyl]-2-cyclohexylmethylpropanamidemonohydrochloride] | 7.3 | 45 | 0.16 | 0.72 | 97 | 100 |  |  | 
C[C@H]1CN(CC(CC2CCCCC2)C(=O)NCC(N)=O)CC[C@@]1(C)c1cccc(O)c1 (relative stereo) [Example 33, 2-[[3-[4-(3-hydroxyphenyl)-3,4-dimethyl-1-piperidinyl]-2-(cyclohexylmethyl)-1-oxophenyl]amino]acetamide monohydrochloride] | 10.2 | 60 | 0.17 | 1.19 | 95 | 100 |  |  | 
C[C@H]1CN(CC(CC2CCCCC2)C(=O)NCCC(=O)OCc2ccccc2)CC[C@@]1(C)c1cccc(O)c1 (relative stereo) [Example 34, 3-[[2-(cyclohexylmethyl)-1-oxo-3-[4-(3-hydroxyphenyl)-3,4-dimethyl-1-piperidinyl]propyl]-amino]propanoic acid phenylmethyl ester monohydrochloride] | 15.1 | 84 | 0.18 | 36.6 | 78 |  | 97 |  | 
C[C@H]1CN(CC(Cc2ccccc2)C(=O)N(C)CC(=O)O)CC[C@@]1(C)c1cccc(O)c1 (relative stereo) [Example 66, [[2-[[4-(3-hydroxyphenyl)-3,4-dimethyl-1-piperidinyl]methyl]-1-oxo-3-phenylpropyl]-methylamino]acetic acid monohydrate] | 14.0 | < 4.7 | < 3 | 1.96 | 70 | 85 |  |  | 
CCOC(=O)CNC(=O)CNC(=O)C(Cc1ccccc1)CN1CC[C@@](C)(c2cccc(O)c2)[C@@H](C)C1 (relative stereo) [Example 67, [[2-[2-[4-(3-hydroxyphenyl)-3,4-dimethyl-1-piperidinyl]methyl]-3-phenyl-1-oxopropyl]-amino]acetyl]amino]acetic acid ethyl ester monohydrochloride] | 5.5 | 36 | 0.15 | 0.37 | 79 | 91 |  |  | 
C[C@H]1CN(CC(Cc2ccccc2)C(=O)NCC(=O)NCC(=O)O)CC[C@@]1(C)c1cccc(O)c1 (relative stereo) [Example 68, N-(carboxylmethyl-)-2-[[3-[4-(3-hydroxyphenyl)-3,4-dimethyl-1-piperidinyl]-2-(phenylmethyl)-1-oxopropyl]amino]acetamide monohydrate] | > 40 | > 174 | 0.23 | 1.51 | 79 | 86 |  |  | 
C[C@H]1CN(CC(Cc2ccccc2)C(=O)NCCN(C)C)CC[C@@]1(C)c1cccc(O)c1 (relative stereo) [Example 69, N-[2-(dimethylamino)ethyl]-3-[4-(3-hydroxyphenyl)-3,4-dimethyl-1-piperidine]-2-phenylmethylpropanamide dihydrochloride] | 30 | 51 | 1.7 |  |  |  |  | 57 | 89
CCc1noc(CNC(=O)C(Cc2ccccc2)CN2CC[C@@](C)(c3cccc(O)c3)[C@@H](C)C2)n1 (relative stereo) [Example 71, 3-[4-(3-hydroxyphenyl)-3,4-dimethyl1-piperidinyl]-2-(phenylmethyl)-N-[(3-ethyl-1,2,4-oxadiazol-5-yl)methyl]propanamide] | 2.1 | 11 | 0.19 | 0.71 | 81 |  | 94 |  | 
